The record followed here is PubChem BioAssay AID200 (DTP/NCI, 2004).

The subject of this test is B6C3F1 mice, B16 melanoma ip, median survival T/C. The experiment in a line: NCI In Vivo Anticancer Drug Screen. Data for tumor model B16 Melanoma (intraperitoneal) in B6C3F1 mice. The note with it: endpoint: median survival time, higher = longer survival. The gist of the method: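 Antitumor effect was judged in mice with transplanted tumors by dividing the treated group's survival measure by that of vehicle controls.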

[1] abbreviates: dose: 6.25 mg/kg/injection, schedule: Q01DX009 (ip), vehicle: Klucel (hydroxypropylcellulose) (HPC).
The mark [2] stands for this setting: dose: 12.5 mg/kg/injection, schedule: Q01DX009 (ip), vehicle: Klucel (hydroxypropylcellulose) (HPC).
Setting [3] is: dose: 25.0 mg/kg/injection, schedule: Q01DX009 (ip), vehicle: Klucel (hydroxypropylcellulose) (HPC).
[4] abbreviates: dose: 25.0 mg/kg/injection, schedule: Q01DX009 (ip), vehicle: water.
Setting [5] is: dose: 50.0 mg/kg/injection, schedule: Q01DX009 (ip), vehicle: Klucel (hydroxypropylcellulose) (HPC).
The mark [6] stands for this setting: dose: 50.0 mg/kg/injection, schedule: Q01DX009 (ip), vehicle: water.
Setting [7] is: dose: 100.0 mg/kg/injection, schedule: Q01DX009 (ip), vehicle: Klucel (hydroxypropylcellulose) (HPC).
[8] abbreviates: dose: 100.0 mg/kg/injection, schedule: Q01DX009 (ip), vehicle: water.
Setting [9] is: dose: 200.0 mg/kg/injection, schedule: Q01DX009 (ip), vehicle: Klucel (hydroxypropylcellulose) (HPC).
Setting [10] is: dose: 50.0 mg/kg/injection, schedule: Q01DX009 (ip), vehicle: saline with Tween-80.
[11] abbreviates: dose: 100.0 mg/kg/injection, schedule: Q01DX009 (ip), vehicle: saline with Tween-80.
Where [12] appears, read: dose: 200.0 mg/kg/injection, schedule: Q01DX009 (ip), vehicle: saline with Tween-80.
Setting [13] is: dose: 400.0 mg/kg/injection, schedule: Q01DX009 (ip), vehicle: Klucel (hydroxypropylcellulose) (HPC).
Where [14] appears, read: dose: 10.0 mg/kg/injection, schedule: Q01DX009 (ip), vehicle: saline.
Where [15] appears, read: dose: 20.0 mg/kg/injection, schedule: Q01DX009 (ip), vehicle: saline.

Where “and” joins values, the source holds several entries; their conditions need not be identical. Equal values may be shown once. Toxic doses and inconclusive results are not listed. Where a SMILES comes first, the peptide text is derived from it. [ ]: non-standard residue; d: D form. The star is where a group is joined. Cbz = O=C(OCc1ccccc1)*; Nva = CCC[CH](N)C(=O)O

As for `CCCCc1ccc(-n2c(C)c(COC(=O)NC)c(COC(=O)NC)c2C)cc1`, the T/C runs as follows: under setting [1], 170 % of control; under setting [2], 174 % of control; under setting [3], 169 % of control.

Consider `Nc1ccc(C(=O)O)cc1`, for which the T/C is 100 % of control and 104 % of control (dose: 3.12 mg/kg/injection, schedule: Q01DX009 (ip), vehicle: Klucel (hydroxypropylcellulose) (HPC)); 114 % of control and 99 % of control and 103 % of control under setting [1]; 114 % of control and 101 % of control under setting [2]; 112 % of control and 90 % of control and 107 % of control under setting [3]; 98 % of control under setting [4]; 100 % of control under setting [5]. Besides, the T/C reads like this: under setting [6], 101 % of control; under setting [7], 117 % of control; under setting [8], 102 % of control; under setting [9], 105 % of control.

Turning to `Cc1[nH]ccc2c(C)c3nc4ccccc4c3cc12`, the T/C under setting [3] is 159 % of control.

Regarding `O=C(Oc1ccccc1)c1cc(O)c(O)c(O)c1`, the T/C (dose: 25.0 mg/kg/injection, schedule: Q01DX009 (ip), vehicle: saline with Tween-80) was 98 % of control; the T/C under setting [10] was 97 % of control; the T/C under setting [11] was 97 % of control; the T/C under setting [12] was 87 % of control.

In the case of `CC(C)CC1C(=O)OC(C(C)C)C(=O)N(C)C(CC(C)C)C(=O)OC(C(C)C)C(=O)N(C)C(CC(C)C)C(=O)OC(C(C)C)C(=O)N(C)C(CC(C)C)C(=O)OC(C(C)C)C(=O)N1C` (stereo unspecified), the T/C reads like this: (dose: 1.0 mg/kg/injection, schedule: Q01DX009 (ip), vehicle: saline) 97 % of control; (dose: 2.0 mg/kg/injection, schedule: Q01DX009 (ip), vehicle: saline) 99 % of control; (dose: 4.0 mg/kg/injection, schedule: Q01DX009 (ip), vehicle: saline) 104 % of control; (dose: 8.0 mg/kg/injection, schedule: Q01DX009 (ip), vehicle: saline) 102 % of control; (dose: 16.0 mg/kg/injection, schedule: Q01DX009 (ip), vehicle: saline) 101 % of control.

As for `Nc1nc(SCc2ccccc2)c2ncn(C3OC(CO)CC3O)c2n1` (stereo unspecified), the T/C was 116 % of control under setting [5] and 107 % of control under setting [7].

On to `CC(NC(=O)OCc1ccccc1)C(=O)NC(CC(N)=O)C(=O)O` (stereo not drawn) (Cbz-Ala-Asn-OH; configuration not given here), for which the T/C was 101 % of control (dose: 12.0 mg/kg/injection, schedule: Q01DX009 (ip), vehicle: Klucel (hydroxypropylcellulose) (HPC)); 101 % of control under setting [3]; 98 % of control under setting [5]; 107 % of control under setting [7]; 104 % of control under setting [13].

For the compound `O=c1[nH]cc(O)c(=O)[nH]1`, the T/C was 102 % of control under setting [5], 96 % of control under setting [7] and 103 % of control under setting [9].

Take `CN(C)CCC(C#N)(CCC1CCCCC1)c1ccccc1` (stereo unspecified): the T/C reads like this: under setting [14], 95 % of control; under setting [15], 95 % of control; (dose: 40.0 mg/kg/injection, schedule: Q01DX009 (ip), vehicle: saline) 92 % of control.

For the compound `NC(CSC(c1ccccc1)(c1ccccc1)c1ccccc1)C(=O)O` (stereo unspecified), the T/C is 120 % of control (dose: 4.0 mg/kg/injection, schedule: Q01DX009 (ip), vehicle: Klucel (hydroxypropylcellulose) (HPC)) and 124 % of control (dose: 16.0 mg/kg/injection, schedule: Q01DX009 (ip), vehicle: Klucel (hydroxypropylcellulose) (HPC)).

For `CCCC(NC(=O)OCc1ccccc1)C(=O)NC(CCSC)C(N)=O` (stereo unspecified) (Cbz-[Nva]-Met-NH2; configuration not given here), the T/C under setting [7] is 104 % of control, the T/C under setting [9] is 103 % of control and the T/C under setting [13] was 93 % of control.

Take `Cc1c(-c2ccc(C3CCCCC3)cc2)nc2ccc(F)cc2c1C(=O)O`: the T/C was 121 % of control under setting [3]; 155 % of control under setting [7]; 150 % of control under setting [9]; 160 % of control and 179 % of control under setting [13].

With `C1OC1CN1CCN(CC2CO2)CC1` (stereo unspecified), the T/C runs as follows: (dose: 4.0 mg/kg/injection, schedule: Q01DX009 (ip), vehicle: saline with Tween-80) 103 % of control; (dose: 16.0 mg/kg/injection, schedule: Q01DX009 (ip), vehicle: saline with Tween-80) 110 % of control.

In the case of `c1ccc(-c2nn(-c3ccccc3)[n+](-c3ccccc3-c3ccccc3)n2)cc1`, the T/C is 108 % of control (dose: 5.0 mg/kg/injection, schedule: Q01DX009 (ip), vehicle: saline); 99 % of control under setting [14]; 101 % of control under setting [15].

Consider `CC(C)C(NC(=O)OC(C)(C)C)C(=O)ON1C(=O)CCC1=O` (stereo unspecified), for which the T/C runs as follows: under setting [10], 91 % of control; under setting [11], 86 % of control.

Take `Cc1c2ccnc(C(N)=O)c2c(C)c2c1[nH]c1ccccc12`: the T/C by setting is: (dose: 62.0 mg/kg/injection, schedule: Q04DX003 (ip), vehicle: distilled water + Tween-80) 96 % of control; (dose: 125.0 mg/kg/injection, schedule: Q04DX003 (ip), vehicle: distilled water + Tween-80) 120 % of control; (dose: 200.0 mg/kg/injection, schedule: Q01DX009 (ip), vehicle: distilled water + Tween-80) 117 % of control; (dose: 250.0 mg/kg/injection, schedule: Q04DX003 (ip), vehicle: distilled water + Tween-80) 106 % of control; (dose: 400.0 mg/kg/injection, schedule: Q01DX009 (ip), vehicle: distilled water + Tween-80) 123 % of control; (dose: 500.0 mg/kg/injection, schedule: Q04DX003 (ip), vehicle: distilled water + Tween-80) 100 % of control. Further, the T/C (dose: 1000.0 mg/kg/injection, schedule: Q04DX003 (ip), vehicle: distilled water + Tween-80) is 124 % of control.

`CC(C)[C@](O)(C(=O)OCC1=CCN2CC[C@@H](O)[C@@H]12)[C@H](C)O`: the T/C under setting [4] was 107 % of control; the T/C under setting [6] was 111 % of control and 116 % of control; the T/C under setting [8] is 111 % of control; the T/C (dose: 200.0 mg/kg/injection, schedule: Q01DX009 (ip), vehicle: water) is 117 % of control.

In the case of `O=C(O)/C=C/C(=O)Nc1ccc(Cl)c(Cl)c1`, the T/C under setting [1] is 112 % of control and the T/C under setting [13] was 110 % of control.

Consider `CC(C)(C)OC(=O)N(C=O)C(Cc1c[nH]c2ccccc12)C(=O)O` (stereo unspecified), for which the T/C is 94 % of control under setting [7], 88 % of control under setting [9] and 86 % of control under setting [13].

As for `CNCCN=c1ccc2c3c1c(O)c1c(O)ccc(=O)c1c3[nH]n2CCNCCO`, the T/C is 273 % of control (dose: 0.38 mg/kg/injection, schedule: Q01DX009 (ip), vehicle: water); 357 % of control (dose: 0.75 mg/kg/injection, schedule: Q01DX009 (ip), vehicle: water); 357 % of control (dose: 1.5 mg/kg/injection, schedule: Q01DX009 (ip), vehicle: water); 309 % of control (dose: 3.0 mg/kg/injection, schedule: Q01DX009 (ip), vehicle: water); 169 % of control (dose: 3.12 mg/kg/injection, schedule: Q01DX009 (ip), vehicle: water).

In the case of `CN(CCN(C)C(=O)CCOS(C)(=O)=O)C(=O)CCOS(C)(=O)=O`, the T/C runs as follows: (dose: 12.5 mg/kg/injection, schedule: Q01DX009 (ip), vehicle: saline) 113 % of control; (dose: 25.0 mg/kg/injection, schedule: Q01DX009 (ip), vehicle: saline) 161 % of control; (dose: 50.0 mg/kg/injection, schedule: Q01DX009 (ip), vehicle: saline) 203 % of control and 219 % of control; (dose: 100.0 mg/kg/injection, schedule: Q01DX009 (ip), vehicle: saline) 213 % of control and 263 % of control; (dose: 200.0 mg/kg/injection, schedule: Q01DX009 (ip), vehicle: saline) 102 % of control.

Consider `Oc1ccc2ccccc2c1N=Nc1ccc(F)cc1`, for which the T/C is 111 % of control and 113 % of control under setting [10]; 120 % of control under setting [11]; 109 % of control and 123 % of control under setting [12]; 113 % of control and 106 % of control (dose: 400.0 mg/kg/injection, schedule: Q01DX009 (ip), vehicle: saline with Tween-80).

`CC/C(C)=C1\OC(=O)C(C)C(O)C(Cc2cccnc2)NC(=O)C(NC(=O)c2ncccc2O)C(C)OC1=O` (stereo unspecified): the T/C reads like this: (dose: 0.75 mg/kg/injection, schedule: Q01DX009 (ip), vehicle: saline with Tween-80) 113 % of control; (dose: 1.5 mg/kg/injection, schedule: Q01DX009 (ip), vehicle: saline with Tween-80) 107 % of control; (dose: 3.0 mg/kg/injection, schedule: Q01DX009 (ip), vehicle: saline with Tween-80) 123 % of control; (dose: 6.0 mg/kg/injection, schedule: Q01DX009 (ip), vehicle: saline with Tween-80) 86 % of control.
